21 compounds from US9206173B2, “Heterocyclic compounds for the treatment of stress-related conditions” (OTSUKA PHARMACEUTICAL CO., LTD., priority 2009, dated 2015) can be followed below.

Where a name gives a salt, the structure may show the parent alone. Read-outs that look alike come from different tables or passages of the source.

The target in experiment [1] is T1, human GPR10 (Homo sapiens (Human), UniProt P49683). The experiment is described as follows: Inhibitory activity on binding of [3H]-PrRP to GPR10 (HEK 293 cell membrane fraction). The method, then: Inhibitory Activity on Binding of [^3H]-PrRP to GPR10
Human GPR10 receptor expressing human embryonic kidney cells, HEK 293 cells, were cultured in Dulbecco's Modified Eagle's medium supplemented with 10% fetal bovine serum and 1% penicilline-streptmycin at 37° C., in 5% carbon dioxide gas conditions. The medium was removed and the cells were recovered in a phosphate buffer to prepare a cell suspension. The cell suspension was homogenated on ice by an ultrasonic cell homogenizer (Microson™ type XL200) and centrifuged at 40,000 g for 10 minutes at 4° C. After the supernatant was discarded, Buffer A (20 mM HEPES, 10 mM EDTA, 1 μl/ml protease inhibiting cocktail, pH 7.4) was added to the pellet. The pellet was suspended by the ultrasonic cell homogenizer, then the suspension was centrifuged at 40,000 g, for 10 minutes at 4° C. After this operation was repeated once again, the supernatant was discarded, Buffer B (20 mM HEPES, 0.1 mM EDTA, pH 7.4) was added to the pellet, and the pellet was suspended by the ultrasonic homogenizer. This was stored at a freezer of −80° C. as a cell membrane fraction until use in a binding test.
To each well of a 96-well plate, 150 μl of assay buffer (20 mM HEPES, 10 mM EDTA, 1 μl/ml protease inhibiting agent cocktail, pH 7.4), 20 μl of cell membrane fraction, 10 μl of test compound and [^3H]-PrRP (final concentration 1 nM) were added and incubated at room temperature for 90 minutes. After completion of the reaction, using a cell harvester, the cell-membrane fraction sample product was filtered under aspiration by a glass fiber filter plate (Unifilter; GF/B) previously treated with 0.5% polyethylene imine. The filter was washed with a 50 mM Tris hydrochloric acid buffer (pH 7.4) three times. After the filter was dried in a dryer (50° C.) for about 3 hours, 40 μl of liquid scintillation cocktail (MicroScint-O) was added to each well and radio activity was measured by a scintillation counter (Packard Topcount). The radio activity in the presence of an excessive amount of non-labeled PrRP (final concentration: 100 nM) was regarded as non-specific binding.
The binding inhibition rate was calculated based on calculating formula: 100−(radio activity when a compound is added−radio activity of non-specific binding)÷(radio activity when a solvent is added−radio activity of non-specific binding)×100.
An IC50 value was calculated based on the concentration dependent reaction using a non-linear analysis program and a Ki value was calculated using Cheng-Prussoff formula.

In experiment [2] the target is T1, human GPR10. The experiment is described as follows: Antagonistic activity on PrRP-induced intracellular calcium mobilization in human GPR10-expressing HEK293 cells. The experiment is classed as cell-based. As to conditions: PrRP 1 nM-induced intracellular calcium mobilization, Fluo-8. The method, then: Pharmacological Test 2 Antagonistic Activity on GPR10 Using Human GPR10-Expressing HEK293 Cells.
Antagonistic activity of test compounds on PrRP-induced intracellular calcium mobilization was evaluated using GPR10-expressing HEK293 cells.
HEK293 cells expressing human GPR10 were maintained in Dulbecco's Modified Eagles' medium supplemented with 10% fetal bovine serum, 1% penicillin-streptomycin and 20 mM HEPES at 37° C. in a 5% CO2 incubator. GPR10-expressing HEK293 cells were placed in poly-D-lysine coated 96-well culture plates and cultured for 18-24 hr before the test at a density of 3×10^4 cells/well. […] The cells were incubated with test compounds for 15 min at room temperature, and then PrRP (the final concentration, 1 nM) was added into the medium. The changes in intracellular calcium-dependent fluorescence were monitored using a fluorescence imaging plate reader (FDSS3000, Hamamatsu Photonics K.K.). Fluo-8 fluorescence was measured with excitation at 490 nm and emission at 520 nm. The calcium-dependent fluorescence intensity was calculated by subtracting basal intensity (average intensity for 30 sec before agonist stimulation) from peak intensity for 60 sec after PrRP-stimulation, and then IC50 values were determined by nonlinear curve-fitting program, GraphPad Prism 5.
(A change in cytosolic calcium serves as a functional read-out for many receptors and channels.)

Setting [3] is: [3H]-PrRP 1 nM, human GPR10-expressing HEK 293 cell membrane fraction, Ki from IC50 by Cheng-Prussoff formula.

T1 sequence (P49683 whole entry): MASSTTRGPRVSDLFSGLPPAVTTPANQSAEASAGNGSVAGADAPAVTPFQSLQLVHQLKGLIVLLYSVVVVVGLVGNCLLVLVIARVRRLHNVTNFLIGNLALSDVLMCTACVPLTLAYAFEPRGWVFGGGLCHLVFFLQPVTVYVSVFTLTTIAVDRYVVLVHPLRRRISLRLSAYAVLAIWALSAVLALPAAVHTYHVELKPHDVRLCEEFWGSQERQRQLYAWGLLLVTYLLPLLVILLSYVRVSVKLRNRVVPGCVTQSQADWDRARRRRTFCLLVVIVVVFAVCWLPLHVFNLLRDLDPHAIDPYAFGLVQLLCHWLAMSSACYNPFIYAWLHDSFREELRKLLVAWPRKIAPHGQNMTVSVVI

On to `C[C@H](Nc1nc2c(c(=O)n1N(C)C)CN(C(=O)c1ccc(C#N)cc1F)CC2)c1ccc(C(F)(F)F)cc1` [Example 5, 6-(4-cyano-2-fluorobenzoyl)-3-dimethylamino-2-(S)-{1-[4-(trifluoromethyl)phenyl]ethylamino}-5,6,7,8-tetrahydropyrido[4,3-d]pyrimidin-4-(3H)-one hydrochloride], for which the inhibition constant (Ki) (in general, a dissociation constant, usually derived from enzyme kinetics or from competition with a known ligand) in experiment [1] (setting [3]) turned out to be 8 nM. Further, the 50% inhibitory concentration (IC50) – broadly, the concentration needed to halve the response being measured – in experiment [2] was 46 nM.

For `COn1c(N[C@@H](C)c2ccc(Cl)cc2)nc2c(c1=O)CN(C(=O)c1ccc(Cl)cc1)CC2` [Example 9, 6-(4-chlorobenzoyl)-3-methoxy-2-(S)-[1-(4-chlorophenyl)ethylamino]-5,6,7,8-tetrahydropyrido[4,3-d]pyrimidin-4-(3H)-one], the inhibitory constant (Ki) in experiment [1] (setting [3]) came out at 28 nM. Also, the half-inhibitory concentration (IC50) in experiment [2] is 204 nM.

For `COn1c(N[C@@H](C)c2ccc(C(F)(F)F)cc2)nc2c(c1=O)CN(C(=O)c1ccc(Cl)cc1)CC2` [Example 10, 6-(4-chlorobenzoyl)-3-methoxy-2-(S)-{1-[4-(trifluoromethyl)phenyl]ethylamino}-5,6,7,8-tetrahydropyrido[4,3-d]pyrimidin-4-(3H)-one hydrochloride], the affinity in experiment [1] (setting [3]), expressed as Ki, was 17 nM. In addition, the IC50 in experiment [2] was determined as 140 nM.

`COn1c(N[C@@H](C)c2ccc(C(F)(F)F)cc2)nc2c(c1=O)CN(C(=O)c1ccc(C#N)cc1F)CC2` [Example 11, 6-(4-cyano-2-fluorobenzoyl)-3-methoxy-2-(S)-{1-[4-(trifluoromethyl)phenyl]ethylamino}-5,6,7,8-tetrahydropyrido[4,3-d]pyrimidin-4-(3H)-one hydrochloride]: the inhibition constant Ki in experiment [1] (setting [3]) is 15 nM. For the same compound, the IC50 in experiment [2] was 34 nM.

For the compound `COn1c(N[C@@H](C)c2ccc(C(F)(F)F)cc2)nc2c(c1=O)CN(C(=O)c1ccc(OC(F)(F)F)cc1)CC2` [Example 63], in experiment [1] (setting [3]), the affinity corresponds to a Ki of 16 nM. In addition, the half-inhibitory concentration (IC50) in experiment [2] was 686 nM.

With `CCOn1c(N[C@H](C)c2ccc(C(F)(F)F)cc2)nc2c(c1=O)CN(C(=O)c1ccc(Cl)cc1)CC2` [Example 86], in experiment [1] (setting [3]), the Ki was 25 nM. For the same compound, the IC50 in experiment [2] was determined as 3710 nM.

Turning to `CCOn1c(N[C@H](C)c2ccc(C(F)(F)F)cc2)nc2c(c1=O)CN(C(=O)c1ccc(C#N)cc1)CC2` [Example 92], the Ki in experiment [1] (setting [3]) was 11 nM. Further, in experiment [2], the IC50 amounted to 156 nM.

The compound `CCOn1c(N[C@H](C)c2ccc(C(F)(F)F)cc2)nc2c(c1=O)CN(C(=O)c1ccc(C#N)cc1F)CC2` [Example 95] registered a Ki in experiment [1] (setting [3]) of 5 nM. Besides, in experiment [2], the IC50 came out at 227 nM.

With `CCOn1c(N[C@H](C)c2ccc(C(F)(F)F)cc2)nc2c(c1=O)CN(C(=O)c1ccc(-c3cnco3)cc1)CC2` [Example 104], the affinity in experiment [1] (setting [3]), expressed as Ki, was 20 nM. Also, the IC50 in experiment [2] worked out at 158 nM.

With `CCOn1c(N[C@H](C)c2ccc(C(F)(F)F)cc2)nc2c(c1=O)CN(C(=O)c1cc3cccnc3s1)CC2` [Example 121], affinity in experiment [1] (setting [3]) was put at a Ki of 17 nM. Moreover, the concentration for half-maximal inhibition (IC50) in experiment [2] is 1680 nM.

Take `C[C@@H](Nc1nc2c(c(=O)n1N1CCCC1)CN(C(=O)c1ccc(C#N)cc1)CC2)c1ccc(C(F)(F)F)cc1` [Example 163]: the Ki in experiment [1] (setting [3]) is 10 nM. Further, the 50% inhibitory concentration (IC50) in experiment [2] amounted to 648 nM.

In experiment [1] (setting [3]), `C[C@@H](Nc1nc2c(c(=O)n1N1CCCC1)CN(C(=O)c1ccc(C#N)cc1F)CC2)c1ccc(C(F)(F)F)cc1` [Example 166] registered a Ki of 6 nM. For the same compound, the 50% inhibitory concentration (IC50) in experiment [2] was determined as 298 nM.

In turn, `COn1c(N[C@@H](C)c2ccc(C(F)(F)F)cc2)nc2c(c1=O)CN(C(=O)COc1ccc(Cl)cc1)CC2` [Example 2389, 6-[2-(4-chlorophenoxy)acetyl]-3-methoxy-2-[(S)-1-(4-trifluoromethylphenyl)ethylamino]-5,6,7,8-tetrahydro-3H-pyrido[4,3-d]pyrimidin-4-one] displayed an inhibition constant (Ki) in experiment [1] (setting [3]) of 8 nM. Moreover, the IC50 in experiment [2] was 678 nM.

Regarding `COn1c(N[C@@H](C)c2ccc(C(F)(F)F)cc2)nc2c(c1=O)CN(C(=O)CSc1ccc(Cl)cc1)CC2` [Example 2390, 6-[2-(4-chlorophenylsulfanyl)acetyl]-3-methoxy-2-[(S)-1-(4-trifluoromethylphenyl)ethylamino]-5,6,7,8-tetrahydro-3H-pyrido[4,3-d]pyrimidin-4-one], in experiment [1] (setting [3]), affinity was put at a Ki of 8 nM. In addition, the IC50 in experiment [2] was 1140 nM.

For the compound `COn1c(N[C@@H](C)c2ccc(C(F)(F)F)cc2)nc2c(c1=O)CN(C(=O)CCc1ccc(Cl)cc1)CC2` [Example 2391, 6-[3-(4-chlorophenyl)propionyl]-3-methoxy-2-[(S)-1-(4-trifluoromethylphenyl)ethylamino]-5,6,7,8-tetrahydro-3H-pyrido[4,3-d]pyrimidin-4-one], the Ki in experiment [1] (setting [3]) was 134 nM. For the same compound, the half-inhibitory concentration (IC50) in experiment [2] was determined as 3900 nM.

Regarding `COn1c(N[C@@H](C)c2ccc(C(F)(F)F)cc2)nc2c(c1=O)CN(C(=O)/C=C/c1ccc(Cl)cc1)CC2` [Example 2392, 6-[(E)-3-(4-chlorophenyl)acryloyl]-3-methoxy-2-[(S)-1-(4-trifluoromethylphenyl)ethylamino]-5,6,7,8-tetrahydro-3H-pyrido[4,3-d]pyrimidin-4-one], the Ki in experiment [1] is 12 nM. Moreover, in experiment [2], the IC50 stood at 5790 nM.

As to `CC#CCn1c(N[C@@H](C)c2ccc(C(F)(F)F)cc2)nc2c(c1=O)CN(C(=O)c1ccc(-n3ccnc3)cc1)CC2` [Example 2402, 3-(2-butynyl)-6-(4-imidazol-1-ylbenzoyl)-2-[(S)-1-(4-trifluoromethylphenyl)ethylamino]-5,6,7,8-tetrahydro-3H-pyrido[4,3-d]pyrimidin-4-one dihydrochloride], in experiment [1] (setting [3]), the Ki is 6 nM. Also, the IC50 in experiment [2] was 99 nM.

`COn1c(N[C@@H](C)c2ccc(C(F)(F)F)cc2)nc2c(c1=O)CN(C(=O)c1ccc(C)s1)CC2` [Example 2404, 3-methoxy-6-(5-methyl-thiophene-2-carbonyl)-2-[(S)-1-(4-trifluoromethylphenyl)ethylamino]-5,6,7,8-tetrahydro-3H-pyrido[4,3-d]pyrimidin-4-one] showed a Ki in experiment [1] (setting [3]) of 10 nM. Further, the IC50 in experiment [2] was determined as 1130 nM.

`COn1c(N[C@@H](C)c2ccc(C(F)(F)F)cc2)nc2c(c1=O)CN(C(=O)c1ccc(Cl)s1)CC2` [Example 2405, 6-(5-chlorothiophene-2-carbonyl)-3-methoxy-2-[(S)-1-(4-trifluoromethylphenyl)ethylamino]-5,6,7,8-tetrahydro-3H-pyrido[4,3-d]pyrimidin-4-one] returned a Ki in experiment [1] (setting [3]) of 15 nM. In experiment [2], the IC50 came to 8790 nM.

With `CC#CCn1c(N[C@@H](C)c2ccc(C(F)(F)F)cc2)nc2c(c1=O)CN(C(=O)c1ccc(C#N)cc1F)CC2` [Example 2406, 4-{3-(2-butynyl)-4-oxo-2-[(S)-1-(4-trifluoromethylphenyl)ethylamino]-3,5,7,8-tetrahydro-4H-pyrido[4,3-d]pyrimidine-6-carbonyl}-3-fluorobenzonitrile hydrochloride], in experiment [1] (setting [3]), the inhibition constant Ki was 2 nM. Besides, in experiment [2], the IC50 turned out to be 78 nM.

On to `CC#CCn1c(N[C@@H](C)c2ccc(C(F)(F)F)cc2)nc2c(c1=O)CN(C(=O)c1ccc(C#N)cc1)CC2` [Example 2407, 4-{3-(2-butynyl)-4-oxo-2-[(S)-1-(4-trifluoromethylphenyl)ethylamino]-3,5,7,8-tetrahydro-4H-pyrido[4,3-d]pyrimidine-6-carbonyl}benzonitrile hydrochloride], for which the inhibition constant (Ki) in experiment [1] (setting [3]) was determined as 8 nM. Further, the IC50 in experiment [2] was 207 nM.
